Assay: Glucose oxidase binding to saliva-coated hydroxyapatite disks (Amplex Red horseradish peroxidase coupled assay)
Experimental: Glucose oxidase binding to saliva coated hydroxyappetite disks is measured using a fluorescent (Amplex Red) horseradish peroxidase coupled assay directly from the disk surface.
Hydroxyapatite (HAP) disks coated with saliva are commonly used as models of a tooth surface.
Saliva was collected from 3-5 donors, clarified by centrifugation, and added to cover HAP disks (5 mm×2.0 mm Clarkson Chromatography) in a covered plastic tray. The disks were incubated with the saliva overnight, with gentle shaking, at room temperature. The disks were rinsed twice with 50 mM phosphate buffer prior to use in the binding assay. Varying concentrations of glucose oxidase (50-650 mU/ml) were added to the saliva-coated HAP disks in the presence of sorbitol (0.8-8%) or polyethyleneimine (1%). The amount of glucose oxidase retained on the hydroxyapatite disks, following three consecutive washes with phosphate buffered saline, was measured using a fluorescence (Amplex Red, Molecular Probes #A22189) horseradish peroxidase coupled assay, as per manufacturer's recommendation.

Question: For `OC[C@@H](O)[C@@H](O)[C@H](O)[C@@H](O)CO` [sorbitol], which “binding of glucose oxidase to saliva coated hydroxyapatite disks relative to no additive” value (FIG. 1, additive sorbitol 8, 0.8, 0.08%, fluorescent Amplex Red HRP coupled assay from disk surface) is on record?
Answer: Its value is “improve binding relative to no additive”.

Question: And the “amount of active glucose oxidase detected on the hydroxyapatite” value (at least 0.8% sorbitol, glucose oxidase 50-650 mU/ml, after three washes with phosphate buffered saline)?
Answer: Its value is “increased the amount of active glucose oxidase detected on the hydroxyapatite”.

From US20110236859A1, “ORAL CARE COMPOSITION CONTAINING OXIDASE ENZYME” (priority 2009, published 2011)
